Experimental data from US11753407B2, “Compounds for treating spinal muscular atrophy” (PTC Therapeutics, Inc., priority 2012, dated 2023).

Columns and labels:
[1] = test system: SMN2 minigene mRNA (SMN2-A minigene) in HEK293H cells; test: SMN2 minigene mRNA splicing RT-qPCR assay in cultured cells; assay type: cell-based, human; details: Homo sapiens, HEK293-H; concentration increasing full length SMN2 mRNA 1.5-fold relative to vehicle-treated cells; HEK293H cells with SMN2-A minigene, 24 hours, 7-point concentration data; read-out: EC1.5x for production of full length SMN2 mRNA
In short: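 Potency reflects the concentration that lifts full-length SMN2 minigene mRNA 1.5-fold above vehicle in stably transfected HEK293H cells after 24 h of treatment. Transcript abundance came from RT-qPCR as (1+E)^−Ct, normalized to GAPDH; endogenous SMN1/SMN2 are not detected.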

[2] = test system: Smn protein in SMA patient fibroblast cells (GM03813); test: Smn protein assay in cultured cells (SMN HTRF); assay type: cell-based, human; details: SMA patient fibroblast cells, 48 hours; for EC1.5x for Smn protein expression: 7-point concentration curve, SMN HTRF, concentration producing 1.5 times Smn protein vs DMSO vehicle control; for maximum fold (Fold) increase of Smn protein: 7-point concentration data, fold relative to vehicle control
In short: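 Smn protein abundance in treated SMA fibroblasts was measured by HTRF after 48 h compound exposure. The reported EC1.5× is the concentration producing 1.5 times vehicle Smn levels.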

| SMILES | melting point | EC (1.5-fold increase) [1] | EC1.5x for Smn protein expression [2] | maximum fold (Fold) increase of Smn protein [2] |
| --- | --- | --- | --- | --- |
| CCc1cc(-c2cc(=O)n3cc(N4CCN5CCC[C@H]5C4)ccc3n2)cn2cc(C)nc12 [Compound 795, 2-(8-ethyl-2-methylimidazo[1,2-a]pyridin-6-yl)-7-[(8aS)-hexahydropyrrolo[1,2-a]pyrazin-2(1H)-yl]-4H-pyrido[1,2-a]pyrimidin-4-one] | 229 to 233 °C | < 0.1 µM | **** (an EC1.5x≤0.3 μM is indicated by four stars (****)) | ***** (a fold increase >1.65 is indicated by five stars (*****)) |
| Cc1nc(C2CCNCC2)cn2c(=O)cc(-c3ccc4nn(C)cc4c3)nc12 [Compound 796, 9-methyl-2-(2-methyl-2H-indazol-5-yl)-7-(piperidin-4-yl)-4H-pyrazino[1,2-a]pyrimidin-4-one] | 229 to 235 °C | < 0.1 µM | **** (an EC1.5x≤0.3 μM is indicated by four stars (****)) | ***** (a fold increase >1.65 is indicated by five stars (*****)) |
| Cc1cn2nc(-c3cc(=O)n4cc(N5CC[C@H](CN)C5)ccc4n3)cc2c(C)n1 [Compound 797, 7-[(3R)-3-(aminomethyl)pyrrolidin-1-yl]-2-(4,6-dimethylpyrazolo[1,5-a]pyrazin-2-yl)-4H-pyrido[1,2-a]pyrimidin-4-one] | 214 to 217 °C | 1 to 3 µM | * (An EC1.5× for Smn protein expression between >3 μM and ≤10 μM is indicated by one star (*)) | *** (a fold increase between >1.35 and ≤1.5 is indicated by three stars (***)) |
| Cc1cn2nc(-c3cc(=O)n4cc(N5CC[C@H](CN(C)C)C5)ccc4n3)cc2c(C)n1 [Compound 799, 7-{(3R)-3-[(dimethylamino)methyl]pyrrolidin-1-yl}-2-(4,6-dimethylpyrazolo[1,5-a]pyrazin-2-yl)-4H-pyrido[1,2-a]pyrimidin-4-one] | 229 to 231 °C | < 0.1 µM | **** (an EC1.5x≤0.3 μM is indicated by four stars (****)) | ***** (a fold increase >1.65 is indicated by five stars (*****)) |
| Cc1cn2nc(-c3cc(=O)n4cc(C5C[C@H](C)N[C@@H](C)C5)ccc4n3)cc2c(C)n1 (stereo partly drawn) [Compound 800, 7-[(2S,6S)-2,6-dimethylpiperidin-4-yl]-2-(4,6-dimethylpyrazolo[1,5-a]pyrazin-2-yl)-4H-pyrido[1,2-a]pyrimidin-4-one] | 248 to 250 °C | < 0.1 µM | **** (an EC1.5x≤0.3 μM is indicated by four stars (****)) | ***** (a fold increase >1.65 is indicated by five stars (*****)) |
| COc1ccc(-c2cc(=O)n3cc(N4CCNCC4)ccc3n2)cc1 [Cpd 1, 2-(4-methoxyphenyl)-7-(piperazin-1-yl)-4H-pyrido[1,2-a]pyrimidin-4-one] | 182 to 184 °C | 0.3 to 1 µM |  | ** (a fold increase between >1.2 and ≤1.35 is indicated by two stars (**)) |
| Cc1ccc2nc(-c3cc(=O)n4cc(N5CCNCC5)ccc4n3)cn2c1 [Cpd 29, 2-(6-methylimidazo[1,2-a]pyridin-2-yl)-7-(piperazin-1-yl)-4H-pyrido[1,2-a]pyrimidin-4-one] | 193 to 198 °C | 3 to 30 µM |  | *** (a fold increase between >1.35 and ≤1.5 is indicated by three stars (***)) |
| COc1ccc(-c2cnc3cc(N4CCNCC4)ccn3c2=O)cc1OC [Cpd 52, 3-(3,4-dimethoxyphenyl)-8-(piperazin-1-yl)-4H-pyrido[1,2-a]pyrimidin-4-one] | 175 to 179 °C | 3 to 30 µM |  | * (A maximum fold increase of ≤1.2 is indicated by one star (*)) |
| COc1ccc(-c2cc(=O)n3cc(N4CCNCC4)cc(OC)c3n2)cc1OC [Cpd 70, 2-(3,4-dimethoxyphenyl)-9-methoxy-7-(piperazin-1-yl)-4H-pyrido[1,2-a]pyrimidin-4-one] | 185 to 187 °C | 1 to 3 µM |  | * (A maximum fold increase of ≤1.2 is indicated by one star (*)) |

The next lines start with results.

| melting point | SMILES | EC (1.5-fold increase) [1] | EC1.5x for Smn protein expression [2] | maximum fold (Fold) increase of Smn protein [2] |
| --- | --- | --- | --- | --- |
| 191 to 195 °C | COc1ccc(-c2cc(=O)n3cc(N4CCNCC4)ccc3n2)cc1F [Cpd 72, 2-(3-fluoro-4-methoxyphenyl)-7-(piperazin-1-yl)-4H-pyrido[1,2-a]pyrimidin-4-one] | < 0.1 µM | *** (an EC1.5× between >0.3 μM and ≤1 μM is indicated by three stars (***)) | *** (a fold increase between >1.35 and ≤1.5 is indicated by three stars (***)) |
| 221 to 225 °C | Cc1cn2cc(-c3cc(=O)n4cc(N5CCNCC5)ccc4n3)nc2cn1 [Cpd 74, 2-(6-methylimidazo[1,2-a]pyrazin-2-yl)-7-(piperazin-1-yl)-4H-pyrido[1,2-a]pyrimidin-4-one] | < 0.1 µM | *** (an EC1.5× between >0.3 μM and ≤1 μM is indicated by three stars (***)) | ***** (a fold increase >1.65 is indicated by five stars (*****)) |
| 158 to 162 °C | COc1ccc(-c2cc(=O)n3cc(N4CCNCC4)ccc3n2)cc1OC(F)(F)F [Cpd 81, 2-[4-methoxy-3-(trifluoromethoxy)phenyl]-7-(piperazin-1-yl)-4H-pyrido[1,2-a]pyrimidin-4-one] | 0.3 to 1 µM |  | ** (a fold increase between >1.2 and ≤1.35 is indicated by two stars (**)) |
| 245 to 248 °C | O=c1cc(-c2ccc(O)c(OC(F)(F)F)c2)nc2ccc(N3CCNCC3)cn12 [Cpd 82, 2-[4-hydroxy-3-(trifluoromethoxy)phenyl]-7-(piperazin-1-yl)-4H-pyrido[1,2-a]pyrimidin-4-one] | 1 to 3 µM | ** (an EC1.5× between >1 μM and ≤3 μM is indicated by two stars (**)) | ***** (a fold increase >1.65 is indicated by five stars (*****)) |
| 199 to 202 °C | COc1ccc(-c2cc(=O)n3cc(N4CCNCC4)ccc3c2C#N)cc1OC [Cpd 85, 2-(3,4-dimethoxyphenyl)-4-oxo-7-(piperazin-1-yl)-4H-quinolizine-1-carbonitrile] | 1 to 3 µM | * (An EC1.5× for Smn protein expression between >3 μM and ≤10 μM is indicated by one star (*)) | *** (a fold increase between >1.35 and ≤1.5 is indicated by three stars (***)) |
| 243 to 245 °C | COc1ccc(-c2cc(=O)n3cc(N4CCN[C@@H](C)C4)ccc3c2)cc1OC [Cpd 91, 2-(3,4-dimethoxyphenyl)-7-[(3S)-3-methylpiperazin-1-yl]-4H-quinolizin-4-one] | 1 to 3 µM |  | ** (a fold increase between >1.2 and ≤1.35 is indicated by two stars (**)) |
| 201 to 208 °C | O=c1cc(-c2cncc(F)c2)nc2ccc(N3CCNCC3)cn12 [Cpd 92, 2-(5-fluoropyridin-3-yl)-7-(piperazin-1-yl)-4H-pyrido[1,2-a]pyrimidin-4-one] | 1 to 3 µM |  | ** (a fold increase between >1.2 and ≤1.35 is indicated by two stars (**)) |
